Source: PMC3610763 (Chemical research in toxicology, 2012)

What was measured:
[1] = in vivo, cited from earlier work
[2] = human, in vivo, po; cited from earlier work
[3] = rat, in vivo, po, 30 mg/kg; cited from earlier work
[4] = test system: individual recombinant human P450 enzymes

SMILES	formation of G3 from the analogue, versus capsaicin (human liver microsomes)	formation of conjugates equivalent to G1/G2 from the analogue, versus capsaicin (human liver microsomes)	further results
COc1cc(CNC(=O)CCCC/C=C/C(C)C)ccc1O [Capsaicin, trans-8-methyl-N-vanillyl-6-nonenamide]			estimated T1/2 ([1]; human): 1.6 h; time within which capsaicin was cleared in most patients [1]: ≤ 4.5 h; AUC [2]: ~ 1.7 ng*h/mL; T1/2 [2]: 25.2 min; Tmax [2]: ~ 0.78 h; absorption from the intestine [3]: 94%; amount found in intestine [3]: ~ 1,060 mg/tissue; amount found in kidney [3]: ~ 7 mg/tissue; amount found in liver [3]: ~ 45 mg/tissue; peak serum concentration [3]: 6.2 µM
COc1cc(CNC(=O)CCCC/C=C/C(C)C)cc(-c2cc(CNC(=O)CCCC/C=C/C(C)C)cc(OC)c2O)c1O [Dimer, 5,5’-Dicapsaicin]			P450 enzymes producing the conjugate/dimer from capsaicin [4]: CYP2D6, 2C9, and 2C8
CCCCCCCCC(=O)NCc1ccc(O)c(O)c1 [N-(3,4-dihydroxybenzyl)nonanamide]	absent		
CCCCCCCCC(=O)NCc1ccc(OC)c(OC)c1 [N-(3,4-dimethoxybenzyl)nonanamide]	absent	diminished	
CCCCCCCCC(=O)NCc1ccc(OC)c(O)c1 [N-(3-hydroxy-4-methoxybenzyl)nonanamide]	absent	unchanged	
CCCCCCCCC(=O)NCc1cccc(OC)c1 [N-(3-methoxybenzyl)nonanamide]	absent	diminished	
CCCCCCCCC(=O)NCc1ccc(O)cc1 [N-(4-hydroxybenzyl)nonanamide]	greater	increased	
CCCCCCCCC(=O)NCc1ccccc1 [N-benzylnonanamide]	absent	diminished	
CCCCCCCCC(=O)NCc1ccc(O)c(OC)c1 [nonivamide, N-vanillylnonanamide]	comparable to capsaicin	unchanged	G4 and G5 formation from the analogue (human liver microsomes): roughly equivalent to capsaicin
